Our source for the TGI and GI50 values is PubChem BioAssay (NCI).

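Cells were grown in 96-well plates and exposed to each compound for 48 hours at five concentrations; endpoints were interpolated linearly between bracketing concentrations, or set to the highest concentration if not reached. GI50 marks 50% less growth. TGI marks complete inhibition of growth.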

Test systems include COLO 205 colon; SK-MEL-28 melanoma; SK-MEL-2 melanoma; SNB-78 CNS; SF-268 CNS; NCI-H460 lung; SW-620 colon; DMS 273 small cell lung; RPMI-8226 leukemia; HS 578T breast.
Holding throughout (assay): inhibition of tumour cell growth, NCI panel, 48 h

For `COc1cc(/C=C/C(=N\NC(=O)c2ccccc2)c2sc(Nc3ccc(Cl)c(Cl)c3)nc2C)ccc1O`, the TGI is greater than 100 µM with COLO 205 colon; greater than 100 µM in the experiment with SK-MEL-28 melanoma; 64.3 µM with SK-MEL-2 melanoma; 93.2 µM with SNB-78 CNS; greater than 100 µM in the experiment with SF-268 CNS; greater than 100 µM in the experiment with NCI-H460 lung. In the experiment with SW-620 colon, this compound displayed a TGI greater than 100 µM.

For the compound `CC(O)CN1C(=O)NC(Cc2ccccc2)C1=O` (stereo not given), the TGI with COLO 205 colon, in the experiment with SK-MEL-28 melanoma, with SK-MEL-2 melanoma, in the experiment with SNB-78 CNS, in the experiment with SF-268 CNS and in the experiment with NCI-H460 lung was greater than 100 µM in each case. Also, the TGI in the experiment on SW-620 colon and in the experiment with DMS 273 small cell lung was greater than 100 µM throughout.

On to `Cc1ccc([N+](=O)[O-])c2c(NCCCN(C)C)ccnc12`, for which the TGI in the experiment with COLO 205 colon is 31.8 µM; in the experiment on SK-MEL-28 melanoma, greater than 100 µM; in the experiment with SK-MEL-2 melanoma, greater than 100 µM; in the experiment on RPMI-8226 leukemia it was greater than 100 µM; in the experiment on HS 578T breast, greater than 100 µM; with SNB-78 CNS it was greater than 100 µM. Further, the values for the TGI in the experiment on SF-268 CNS, in the experiment on NCI-H460 lung and in the experiment with SW-620 colon were greater than 100 µM, 76.1 µM and greater than 100 µM, respectively.

With `O=C(Nc1ccc(S(=O)(=O)N[C@@H](C(=O)O)c2ccccc2)cc1)c1ccc(F)cc1`, the TGI in the experiment with COLO 205 colon, with SK-MEL-28 melanoma, in the experiment on SK-MEL-2 melanoma, in the experiment with RPMI-8226 leukemia, with SF-268 CNS and with NCI-H460 lung was greater than 100 µM throughout. For the same compound, the TGI with SW-620 colon and with DMS 273 small cell lung was greater than 100 µM throughout.

Regarding `CC(=O)[CH-]C(C)=O.CC(=O)[CH-]C(C)=O.N=CC=N.[Sn+2]`, the GI50 with COLO 205 colon was 2.02 µM; with SK-MEL-28 melanoma, 1.92 µM; with SK-MEL-2 melanoma, 3.46 µM; in the experiment on RPMI-8226 leukemia it was 1.48 µM; with HS 578T breast, 2.66 µM; in the experiment on SF-268 CNS, 3.28 µM. The GI50 with NCI-H460 lung was 3.9 µM; with SW-620 colon, 1.71 µM; in the experiment with DMS 273 small cell lung it was 2.91 µM. The TGI in the experiment with COLO 205 colon is 3.61 µM; in the experiment on SK-MEL-28 melanoma it was 4.27 µM; in the experiment with SK-MEL-2 melanoma, 11.2 µM; with RPMI-8226 leukemia, 4.38 µM; in the experiment on HS 578T breast, 10.5 µM; with SF-268 CNS, 10.5 µM. Further, the TGI in the experiment with NCI-H460 lung is 10.8 µM; in the experiment with SW-620 colon, 3.11 µM; in the experiment with DMS 273 small cell lung, 8.57 µM.

For the compound `N#Cc1c(N)c(C(=O)O)nn(-c2cccc(C(F)(F)F)c2)c1=O`, the TGI in the experiment with COLO 205 colon, in the experiment on SK-MEL-28 melanoma, in the experiment with SK-MEL-2 melanoma, with RPMI-8226 leukemia, with SNB-78 CNS and in the experiment with SF-268 CNS was greater than 100 µM in each case. The TGI in the experiment with NCI-H460 lung and in the experiment on SW-620 colon was greater than 100 µM each time.

`CC/C=C\C/C=C\C1CC(=O)NCCCNCCCCN1` (stereo not given): the TGI in the experiment on COLO 205 colon, with SK-MEL-28 melanoma, in the experiment on SK-MEL-2 melanoma, in the experiment on SNB-78 CNS, in the experiment on SF-268 CNS and in the experiment with NCI-H460 lung was greater than 100 µM each time. For the same compound, the TGI with SW-620 colon and in the experiment with DMS 273 small cell lung was greater than 100 µM throughout.

Consider `O=C1N[C@@H](O)[C@@H]2ON=C(c3ccccc3)[C@H]12`, for which the TGI in the experiment on COLO 205 colon, in the experiment with SK-MEL-28 melanoma, with SK-MEL-2 melanoma, with RPMI-8226 leukemia, in the experiment on SF-268 CNS and in the experiment on NCI-H460 lung was greater than 100 µM throughout. Also, the TGI in the experiment on SW-620 colon and in the experiment on DMS 273 small cell lung was greater than 100 µM throughout.

As to `CC(=O)OCCOCBr`, the TGI with COLO 205 colon, in the experiment with SK-MEL-28 melanoma, in the experiment on SK-MEL-2 melanoma, with RPMI-8226 leukemia, in the experiment with SF-268 CNS and in the experiment on NCI-H460 lung was greater than 100 µM each time. Further, the TGI in the experiment on SW-620 colon and with DMS 273 small cell lung was greater than 100 µM in each case.

Regarding `C=CCOc1c(Br)cc(Br)cc1Br`, the GI50 was 22.2 µM in the experiment on COLO 205 colon; 75.5 µM with SK-MEL-28 melanoma; greater than 100 µM in the experiment with SK-MEL-2 melanoma; 16.2 µM in the experiment on RPMI-8226 leukemia; 17.8 µM in the experiment with HS 578T breast; 21.1 µM with SF-268 CNS. Moreover, the figures for the GI50 in the experiment on NCI-H460 lung and with SW-620 colon were 8.21 µM and 22.6 µM, respectively. In addition, the TGI with COLO 205 colon was 56.9 µM; in the experiment on SK-MEL-28 melanoma, greater than 100 µM; in the experiment with SK-MEL-2 melanoma, greater than 100 µM; in the experiment with RPMI-8226 leukemia it was greater than 100 µM; in the experiment with HS 578T breast, greater than 100 µM; in the experiment on SF-268 CNS, greater than 100 µM. Also, the TGI in the experiment on NCI-H460 lung is greater than 100 µM; with SW-620 colon, 89.4 µM.

As for `Clc1ccc(OCc2nnc3n2N=C(c2ccc(Cl)cc2Cl)CS3)c(Cl)c1`, the GI50 is 34.7 µM in the experiment with COLO 205 colon; 22.6 µM with SK-MEL-28 melanoma; 25.1 µM in the experiment on SK-MEL-2 melanoma; 23.4 µM in the experiment on RPMI-8226 leukemia; 29.6 µM in the experiment on HS 578T breast; 22.9 µM with SF-268 CNS. Also, the GI50 is 19.3 µM with NCI-H460 lung and 31.3 µM in the experiment on SW-620 colon. In addition, the TGI in the experiment with COLO 205 colon was greater than 100 µM; with SK-MEL-28 melanoma, 57 µM; with SK-MEL-2 melanoma, 57 µM; in the experiment on RPMI-8226 leukemia it was 63.7 µM; in the experiment with HS 578T breast it was greater than 100 µM; in the experiment on SF-268 CNS, 66.5 µM. Further, the TGI is 56.3 µM with NCI-H460 lung and greater than 100 µM in the experiment on SW-620 colon.

With `CCN(CCO)CCNc1ccc(C)c2sc3cc(Cl)ccc3c(=O)c12`, the GI50 in the experiment on COLO 205 colon was 1.14 µM; in the experiment with SK-MEL-28 melanoma it was 1.64 µM; with SK-MEL-2 melanoma, 1.78 µM; in the experiment with RPMI-8226 leukemia it was 1.86 µM; with HS 578T breast it was 1.76 µM; in the experiment on SF-268 CNS, 1.44 µM. For the same compound, the GI50 is 1.41 µM with NCI-H460 lung and 1.27 µM in the experiment with SW-620 colon. Further, the TGI was determined as 2.62 µM in the experiment with COLO 205 colon; 3.23 µM in the experiment on SK-MEL-28 melanoma; 3.56 µM with SK-MEL-2 melanoma; 4.6 µM with RPMI-8226 leukemia; 4.46 µM in the experiment with HS 578T breast; 3.04 µM with SF-268 CNS. Further, the figures for the TGI in the experiment with NCI-H460 lung and in the experiment with SW-620 colon were 3.03 µM and 2.77 µM, respectively.

`NC1=NC(=O)C(CC(=O)Nc2ccc([N+](=O)[O-])cc2[N+](=O)[O-])S1` (stereo not given): the TGI with COLO 205 colon, with SK-MEL-28 melanoma, in the experiment on SK-MEL-2 melanoma, with RPMI-8226 leukemia, in the experiment on SNB-78 CNS and with SF-268 CNS was greater than 100 µM each time. Also, the TGI in the experiment on NCI-H460 lung and in the experiment with SW-620 colon was greater than 100 µM throughout.

In the case of `NCCN1CCN(c2nccc(-c3ccc4ccccc4c3)n2)CC1`, the GI50 in the experiment on COLO 205 colon was 1.76 µM; in the experiment on SK-MEL-28 melanoma it was 1.85 µM; in the experiment with SK-MEL-2 melanoma, 2.21 µM; in the experiment with RPMI-8226 leukemia, 2.08 µM; in the experiment on HS 578T breast, 1.73 µM; in the experiment with SF-268 CNS it was 1.75 µM. The GI50 in the experiment on NCI-H460 lung was 1.91 µM; with SW-620 colon, 1.83 µM. For the same compound, the TGI in the experiment with COLO 205 colon was 3.41 µM; in the experiment with SK-MEL-28 melanoma it was 3.42 µM; in the experiment on SK-MEL-2 melanoma, 4.36 µM; in the experiment with RPMI-8226 leukemia it was 5.72 µM; with HS 578T breast, 4.37 µM; in the experiment on SF-268 CNS, 3.49 µM. The TGI in the experiment with NCI-H460 lung amounted to 3.69 µM; in the experiment with SW-620 colon, 3.61 µM.

As for `Cc1ncc(NC(=O)c2ccc(CN3CCN(C)CC3)c(C(F)(F)F)c2)cc1Nc1nccc(-c2cccnc2)n1`, the GI50 was 5.55 µM in the experiment on COLO 205 colon; 12.7 µM in the experiment on SK-MEL-28 melanoma; 14.7 µM in the experiment on SK-MEL-2 melanoma; 10 µM in the experiment with RPMI-8226 leukemia; 17.7 µM in the experiment with HS 578T breast; 17.4 µM in the experiment with SF-268 CNS. Besides, the GI50 with NCI-H460 lung was 17.4 µM; with SW-620 colon it was 13.5 µM. The TGI worked out at 21.6 µM with COLO 205 colon; 25.4 µM in the experiment with SK-MEL-28 melanoma; 29.4 µM in the experiment with SK-MEL-2 melanoma; 49.7 µM with RPMI-8226 leukemia; 45.7 µM in the experiment with HS 578T breast; 33.7 µM in the experiment with SF-268 CNS. Besides, the TGI with NCI-H460 lung was found to be 33 µM; in the experiment on SW-620 colon it was 30.4 µM.

Consider `C=C(C)[C@@H]1CC[C@@]2(C(=O)O)CC[C@]3(C)C(CCC4[C@@]5(C)CCC(OS(=O)(=O)c6ccccc6)C(C)(C)C5CC[C@]43C)C12` (stereo not given in full), for which the GI50 in the experiment with COLO 205 colon is 5.66 µM; in the experiment with SK-MEL-28 melanoma, 9.9 µM; with SK-MEL-2 melanoma, 4.4 µM; with RPMI-8226 leukemia it was 1.69 µM; in the experiment with HS 578T breast, 8 µM; in the experiment with SF-268 CNS, 13.6 µM. The GI50 in the experiment on NCI-H460 lung was 3.36 µM; with SW-620 colon, 3.89 µM. The TGI in the experiment with COLO 205 colon is 18.2 µM; in the experiment on SK-MEL-28 melanoma, 22.4 µM; in the experiment on SK-MEL-2 melanoma, 16.3 µM; in the experiment on RPMI-8226 leukemia, greater than 100 µM; in the experiment with HS 578T breast, 42.4 µM; in the experiment on SF-268 CNS, 51.5 µM. Further, the TGI in the experiment with NCI-H460 lung came to 15.5 µM; in the experiment on SW-620 colon, 15.2 µM.

Regarding `COc1ccc(C2C(N)=NCC2c2ccccn2)cc1` (stereo not given), the TGI in the experiment with COLO 205 colon, with SK-MEL-28 melanoma, in the experiment on SK-MEL-2 melanoma, in the experiment on RPMI-8226 leukemia, with SNB-78 CNS and with SF-268 CNS was greater than 100 µM in each case. For the same compound, the TGI with NCI-H460 lung and with SW-620 colon was greater than 100 µM throughout.

Turning to `Cc1c(C(=O)NN)nnn1-c1ccnc2c(C(F)(F)F)cccc12`, the GI50 in the experiment with COLO 205 colon, in the experiment on SK-MEL-28 melanoma, with SK-MEL-2 melanoma, with RPMI-8226 leukemia, in the experiment with HS 578T breast and in the experiment with SF-268 CNS was greater than 100 µM each time. Moreover, the GI50 in the experiment with NCI-H460 lung and with SW-620 colon was greater than 100 µM each time. In addition, the TGI in the experiment with COLO 205 colon, with SK-MEL-28 melanoma, in the experiment on SK-MEL-2 melanoma, in the experiment on RPMI-8226 leukemia, with HS 578T breast and with SF-268 CNS was greater than 100 µM in each case. In addition, the TGI in the experiment on NCI-H460 lung and in the experiment with SW-620 colon was greater than 100 µM throughout.
